Measured values published in article PMC7349657, “Efficient Targeted Degradation via Reversible and Irreversible Covalent PROTACs” (Journal of the American Chemical Society, 2020).

Assays:
[1] = biological target: T1, BTK C481S (Homo sapiens, UniProt Q06187, C481S); assay: Degradation of overexpressed BTK C481S in transfected U2OS cells; format: cell-based; conditions: overexpressed WT vs C481S BTK, 100 nM, 24 h
T1 construct: Human wild type BTK full length was obtained from the ORFeome; expressed in transfected cells; host or cells: U2OS (ATCC HTB-96), pCDNA3.1, CMV promoter
Experimental: Figure 5 Degradation of overexpressed BTK and BTK C481S in U2OS cells. (A) Transfected U2OS cells were treated with 100 nM PROTAC for 24 h, followed by measuring BTK levels via Western blot. (B) Quantification of normalized BTK levels in (A). TEXT PRINTED IN THE PICTURE: (A) IR-1: BTK % control: 43 (Transfection: BTK-WT; PROTAC 24h [0.1 μM]); BTK % control: 67 (Transfection: BTK-C481S; PROTAC 24h [0.1 μM]) | (A) RC-2: BTK % control: 58 (Transfection: BTK-WT; PROTAC 24h [0.1 μM]); BTK % control: 73 (Transfection: BTK-C481S; PROTAC 24h [0.1 μM]) | (A) IR-2: BTK % control: 41 (Transfection: BTK-WT; PROTAC 24h [0.1 μM]); BTK % control: 62 (Transfection: BTK-C481S; PROTAC 24h [0.1 μM]) | (A) NC-1: BTK % control: 27 (Transfection: BTK-WT; PROTAC 24h [0.1 μM]); BTK % control: 49 (Transfection: BTK-C481S; PROTAC 24h [0.1 μM]) | (A) RC-3: BTK % control: 27 (Transfection: BTK-WT; PROTAC 24h [0.1 μM]); BTK % control: 104 (Transfection: BTK-C481S; PROTAC 24h [0.1 μM]) DOUBTS OF THE COPYIST ABOUT THIS PICTURE: The % control numbers are printed under a Western blot. They are given here as printed results for each compound. The vehicle and untransfected lanes (DMSO 100 and 100, Un 1 and 0) were left out as controls. / Panel B prints no numbers for its bars, so nothing was taken from it.
Ramos (ATCC, CRL-1596), Mino (ATCC, CRL-3000), or K562 (NCI-60) cell lines were counted and diluted to 10^6 cell/mL, using 1 mL per well in a 24-well plate, and U2OS (ATCC HTB-96) cells overexpressing human BTK WT or C481S mutant were grown using 2 mL in a six-well plate (see Supporting Information). Cells were incubated with 1% DMSO or compound in indicated concentrations for 24 h unless indicated differently, or cells were left untreated. Lysates were prepared as previously described,[29] and samples were measured for total protein quantification by bicinchoninic acid (BCA) assay (#23225 ThermoFisher Scientific) supplemented with 4× loading buffer including 20 mM DTT, heated to 70 °C for 10 min, loaded into 4% SDS-PAGE gel, run for 45 min at 140 mV, then transferred into a nitrocellulose membrane (Biorad) using a Trans-Blot Turbo transfer system (Biorad). The membrane was stained with Ponceau (Sigma) to validate transfer for 10 min in gentle agitation then destained for 1 h with MQ water. The membrane was blocked with Licor blocking buffer (LIC927-70001) for 1 h, washed three times for 5 min with TBS-T, incubated with primary antibody BTK (D3H5) rabbit mAb (CST; 8547 S) overnight (16 h) at 4 °C, washed three times for 5 min with TBS-T, and incubated with primary antibody against β-actin (CST; 3700) for 1 h at 25 °C. Membrane was washed three times for 5 min with TBS-T, incubated with fluorescent secondary antibodies anti-mouse IgG Alexa Fluor 647 (CST: 4410S) and anti-rabbit-IgG IRDye 800(LICOR: 926-32211) for 1 h, then washed three times for 5 min with TBS-T, dried, and immediately imaged and analyzed using Licor Odyssey CLx. Prism (GraphPad) software was used to calculate degradation levels. We used second-order polynomial fits to estimate DC50 and Dmax values.
Cloning and Over Expression of BTK
Human wild type BTK full length was obtained from the ORFeome (ref: http://www.orfeomecollaboration.org/), from which the full human BTK gene (clone HsCD00433457) was inserted into the mammalian expression vector pCDNA3.1. In parallel, a mutant BTK C481S was constructed by assemble 2 PCR products harboring the desired mutation and cloned into pCDNA3.1. […]

[2] = biological target: wild-type BTK (Homo sapiens, UniProt Q06187); assay: In vitro kinase activity assay, wild-type BTK (Nanosyn)
Chain of wild-type BTK (Q06187 whole entry, species assumed): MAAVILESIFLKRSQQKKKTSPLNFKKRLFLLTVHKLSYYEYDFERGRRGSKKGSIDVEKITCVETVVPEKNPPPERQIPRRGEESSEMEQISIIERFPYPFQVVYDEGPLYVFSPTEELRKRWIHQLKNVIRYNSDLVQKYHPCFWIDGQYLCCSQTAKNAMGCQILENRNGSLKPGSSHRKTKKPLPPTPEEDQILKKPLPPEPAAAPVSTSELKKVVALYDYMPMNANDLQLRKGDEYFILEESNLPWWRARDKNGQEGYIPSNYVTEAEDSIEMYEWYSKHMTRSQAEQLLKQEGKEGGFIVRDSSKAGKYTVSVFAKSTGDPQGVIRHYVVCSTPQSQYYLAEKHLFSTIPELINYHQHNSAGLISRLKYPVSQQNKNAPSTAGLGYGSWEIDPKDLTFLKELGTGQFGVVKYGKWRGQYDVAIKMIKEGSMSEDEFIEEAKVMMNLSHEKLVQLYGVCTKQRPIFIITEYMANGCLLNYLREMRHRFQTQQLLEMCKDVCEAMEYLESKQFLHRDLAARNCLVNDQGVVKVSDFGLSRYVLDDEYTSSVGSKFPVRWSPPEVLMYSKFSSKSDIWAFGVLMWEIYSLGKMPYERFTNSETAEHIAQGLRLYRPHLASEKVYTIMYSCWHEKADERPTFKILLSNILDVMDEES

T1 sequence (Q06187 whole entry C481S): as the sequence (Q06187 whole entry, species assumed) above, with C481S counted along it

| Structure (SMILES) | sensitivity of degradation to the C481S mutation [1] | IC50 [2] [nM] |
| --- | --- | --- |
| Nc1ncnc2c1c(-c1ccc(Oc3ccccc3)cc1)nn2C1CCCN(C(=O)C=CCOCCOCCOCCOCCOCCOc2cccc3c2C(=O)N(C2CCC(=O)NC2=O)C3=O)C1 (stereo not shown) [IR-1] | low sensitivity to the mutation | 2 |
| Nc1ncnc2c1c(-c1ccc(Oc3ccccc3)cc1)nn2C1CCCN(C(=O)C=CCCCCOCCOCCOCCOCCOc2cccc3c2C(=O)N(C2CCC(=O)NC2=O)C3=O)C1 (stereo not shown) [IR-2] | low sensitivity to the mutation | 14 |
| Nc1ncnc2c1c(-c1ccc(Oc3ccccc3)cc1)nn2C1CCCN(C(=O)CCCCCCOCCOCCOCCOCCOc2cccc3c2C(=O)N(C2CCC(=O)NC2=O)C3=O)C1 (stereo not shown) [NC-1] | only mildly affected by the mutation | 16 |

Stronger by IC50 [2], values ahead:

| sensitivity of degradation to the C481S mutation [1] | IC50 [2] [nM] | Structure (SMILES) |
| --- | --- | --- |
| severely impaired by the mutation | 0.4 | CC(C)(C=C(C#N)C(=O)N1CCCC(n2nc(-c3ccc(Oc4ccccc4)cc3)c3c(N)ncnc32)C1)CCCOCCOCCOCCOCCOc1cccc2c1C(=O)N(C1CCC(=O)NC1=O)C2=O (stereo not shown) [RC-3] |
| low sensitivity to the mutation | 1 | N#CC(=CCCCCOCCOCCOCCOCCOc1cccc2c1C(=O)N(C1CCC(=O)NC1=O)C2=O)C(=O)N1CCCC(n2nc(-c3ccc(Oc4ccccc4)cc3)c3c(N)ncnc32)C1 (stereo not shown) [RC-2] |
